Laboratory results: US10570129B2 (Zoetis Services LLC, priority 2015, dated 2020)

How the values were obtained:
[1] = tested on: Trichostrongylus colubriformis; assay: Jird efficacy model; assay type: in vivo; conditions: Trichostrongylus colubriformis, sc, 96 h, read-out: Jird % (percentage efficacy)
Haemonchus contortus L3 = assay: microbe, parasite or virus in culture; assay type: cell-based; conditions: for minimal effective concentration: Haemonchus contortus, 96 h, read-out: HcL3 Minimal Effective Concentration (MEC)
D. immitis microfilariae = assay: Dirofilaria immitis, microfilariae (DiMF) in vitro motility assay; assay type: cell-based; conditions: for minimal effective concentration: Dirofilaria immitis, 72 h, read-out: DiMF minimally effective dose (MEC)

O=C(NCc1ccnc(F)c1)n1c2c(c3ccc(OC(F)(F)F)cc31)CN(C/C=C/c1cc(F)c(F)c(F)c1)CC2 [Example 377, (E)-N-((2-fluoropyridin-4-yl)methyl)-7-(trifluoromethoxy)-2-(3-(3,4,5-trifluorophenyl)allyl)-1,2,3,4-tetrahydro-5H-pyrido[4,3-b]indole-5-carboxamide]
inhibition in vivo at 10 mg/kg [1]: 99% | minimal effective concentration (Haemonchus contortus L3): 0.3 µM | minimal effective concentration (D. immitis microfilariae): 5.7 µM

O=C(NCc1ccnc(Cl)c1)n1c2c(c3cc(Br)ccc31)CN(C/C=C/c1ccc(Cl)cc1)CC2 [Example 185, (E)-8-bromo-2-(3-(4-chlorophenyl)allyl)-N-((2-chloropyridin-4-yl)methyl)-1,2,3,4-tetrahydro-5H-pyrido[4,3-b]indole-5-carboxamide]
inhibition in vivo at 10 mg/kg [1]: 100% | minimal effective concentration (Haemonchus contortus L3): 0.7 µM | minimal effective concentration (D. immitis microfilariae): 7.7 µM

O=C(NCc1ccnc(Cl)c1)n1c2c(c3cc(Cl)ccc31)CN(C/C=C/c1ccc(F)c(F)c1)CC2 [Example 240, (E)-8-chloro-N-((2-chloropyridin-4-yl)methyl)-2-(3-(3,4-difluorophenyl)allyl)-1,2,3,4-tetrahydro-5H-pyrido[4,3-b]indole-5-carboxamide]
inhibition in vivo at 10 mg/kg [1]: 98% | minimal effective concentration (Haemonchus contortus L3): 0.2 µM | minimal effective concentration (D. immitis microfilariae): 3.3 µM

N#Cc1ccc(/C=C/CN2CCc3c(c4ccc(C(F)(F)F)cc4n3C(=O)NCc3ccnc(F)c3)C2)cc1 [Example 164, (E)-2-(3-(4-cyanophenyl)allyl)-N-((2-fluoropyridin-4-yl)methyl)-7-(trifluoromethyl)-1,2,3,4-tetrahydro-5H-pyrido[4,3-b]indole-5-carboxamide]
inhibition in vivo at 10 mg/kg [1]: 100% | minimal effective concentration (Haemonchus contortus L3): 3.3 µM | minimal effective concentration (D. immitis microfilariae): 10 µM

N#Cc1ccc2c3c(n(C(=O)NCc4ccnc(Cl)c4)c2c1)CCN(C/C=C/c1ccc(Cl)cc1F)C3 [Example 7, (E)-2-(3-(4-chloro-2-fluorophenyl)allyl)-N-((2-chloropyridin-4-yl)methyl)-7-cyano-1,2,3,4-tetrahydro-5H-pyrido[4,3-b]indole-5-carboxamide]
inhibition in vivo at 10 mg/kg [1]: 100% | minimal effective concentration (Haemonchus contortus L3): 2.4 µM | minimal effective concentration (D. immitis microfilariae): 10 µM

N#Cc1ccc(/C=C/CN2CCc3c(c4cc(Br)ccc4n3C(=O)NCc3ccnc(Cl)c3)C2)cc1 [Example 184, (E)-8-bromo-N-((2-chloropyridin-4-yl)methyl)-2-(3-(4-cyanophenyl)allyl)-1,2,3,4-tetrahydro-5H-pyrido[4,3-b]indole-5-carboxamide]
inhibition in vivo at 10 mg/kg [1]: 100% | minimal effective concentration (Haemonchus contortus L3): 1 µM | minimal effective concentration (D. immitis microfilariae): 57.4 µM

O=C(NCc1ccnc(F)c1)n1c2c(c3cc(C(F)(F)F)ccc31)CN(C/C=C/c1ccc(F)cc1F)CC2 [Example 417, (E)-2-(3-(2,4-difluorophenyl)allyl)-N-((2-fluoropyridin-4-yl)methyl)-8-(trifluoromethyl)-1,2,3,4-tetrahydro-5H-pyrido[4,3-b]indole-5-carboxamide]
inhibition in vivo at 10 mg/kg [1]: 100% | minimal effective concentration (Haemonchus contortus L3): 5.7 µM | minimal effective concentration (D. immitis microfilariae): 10 µM

O=C(NCc1ccnc(Cl)c1)n1c2c(c3cc(Cl)ccc31)CN(C/C=C/c1ccc(F)c(Cl)c1)CC2 [Example 239, (E)-8-chloro-2-(3-(3-chloro-4-fluorophenyl)allyl)-N-((2-chloropyridin-4-yl)methyl)-1,2,3,4-tetrahydro-5H-pyrido[4,3-b]indole-5-carboxamide]
inhibition in vivo at 10 mg/kg [1]: 98% | minimal effective concentration (Haemonchus contortus L3): 0.3 µM | minimal effective concentration (D. immitis microfilariae): 3.3 µM

N#Cc1ccc(/C=C/CN2CCc3c(c4c(F)cc(C(F)(F)F)cc4n3C(=O)NCc3ccnc(Cl)c3)C2)cc1 [Example 321, (E)-N-((2-chloropyridin-4-yl)methyl)-2-(3-(4-cyanophenyl)allyl)-9-fluoro-7-(trifluoromethyl)-1,2,3,4-tetrahydro-5H-pyrido[4,3-b]indole-5-carboxamide]
inhibition in vivo at 10 mg/kg [1]: 100% | minimal effective concentration (Haemonchus contortus L3): 2.4 µM | minimal effective concentration (D. immitis microfilariae): 5.7 µM

N#Cc1ccc2c3c(n(C(=O)NCc4ccnc(Br)c4)c2c1)CCN(C/C=C/c1ccc(Cl)c(F)c1)C3 [Example 41, (E)-N-((2-bromopyridin-4-yl)methyl)-2-(3-(4-chloro-3-fluorophenyl)allyl)-7-cyano-1,2,3,4-tetrahydro-5H-pyrido[4,3-b]indole-5-carboxamide]
inhibition in vivo at 10 mg/kg [1]: 100% | minimal effective concentration (Haemonchus contortus L3): 0.3 µM | minimal effective concentration (D. immitis microfilariae): 5.7 µM

N#Cc1ccc2c(c1)c1c(n2C(=O)NCc2ccnc(F)c2)CCN(C/C=C/c2cc(F)c(Cl)c(F)c2)C1 [Example 99, (E)-2-(3-(4-chloro-3,5-difluorophenyl)allyl)-8-cyano-N-((2-fluoropyridin-4-yl)methyl)-1,2,3,4-tetrahydro-5H-pyrido[4,3-b]indole-5-carboxamide]
inhibition in vivo at 10 mg/kg [1]: 100% | minimal effective concentration (Haemonchus contortus L3): 0.1 µM | minimal effective concentration (D. immitis microfilariae): 10 µM

O=C(NCc1ccnc(F)c1)n1c2c(c3cc(C(F)(F)F)ccc31)CN(C/C=C/c1ccc(F)c(F)c1)CC2 [Example 419, (E)-2-(3-(3,4-difluorophenyl)allyl)-N-((2-fluoropyridin-4-yl)methyl)-8-(trifluoromethyl)-1,2,3,4-tetrahydro-5H-pyrido[4,3-b]indole-5-carboxamide]
inhibition in vivo at 10 mg/kg [1]: 100% | minimal effective concentration (Haemonchus contortus L3): 1 µM | minimal effective concentration (D. immitis microfilariae): 10 µM

O=C(NCc1ccnc(Cl)c1)n1c2c(c3ccc(OC(F)(F)F)cc31)CN(C/C=C/c1ccc(F)cc1)CC2 [Example 356, (E)-N-((2-chloropyridin-4-yl)methyl)-2-(3-(4-fluorophenyl)allyl)-7-(trifluoromethoxy)-1,2,3,4-tetrahydro-5H-pyrido[4,3-b]indole-5-carboxamide]
inhibition in vivo at 10 mg/kg [1]: 100% | minimal effective concentration (Haemonchus contortus L3): 0.6 µM | minimal effective concentration (D. immitis microfilariae): 3.8 µM

O=C(NCc1ccnc(F)c1)n1c2c(c3cc(C(F)(F)F)ccc31)CN(C/C=C/c1ccc(Cl)cc1)CC2 [Example 421, (E)-2-(3-(4-chlorophenyl)allyl)-N-((2-fluoropyridin-4-yl)methyl)-8-(trifluoromethyl)-1,2,3,4-tetrahydro-5H-pyrido[4,3-b]indole-5-carboxamide]
inhibition in vivo at 10 mg/kg [1]: 100% | minimal effective concentration (Haemonchus contortus L3): 3.3 µM | minimal effective concentration (D. immitis microfilariae): 12.7 µM

N#Cc1ccc2c3c(n(C(=O)NCc4ccnc(Cl)c4)c2c1)CCN(C/C=C/c1ccc(Cl)c(Cl)c1)C3 [Example 35, (E)-N-((2-chloropyridin-4-yl)methyl)-7-cyano-2-(3-(3,4-dichlorophenyl)allyl)-1,2,3,4-tetrahydro-5H-pyrido[4,3-b]indole-5-carboxamide]
inhibition in vivo at 10 mg/kg [1]: 100% | minimal effective concentration (Haemonchus contortus L3): 3.3 µM | minimal effective concentration (D. immitis microfilariae): 33 µM

N#Cc1ccc(/C=C/CN2CCc3c(c4cc(OC(F)(F)F)ccc4n3C(=O)NCc3ccnc(Cl)c3)C2)cc1 [Example 390, (E)-N-((2-chloropyridin-4-yl)methyl)-2-(3-(4-cyanophenyl)allyl)-8-(trifluoromethoxy)-1,2,3,4-tetrahydro-5H-pyrido[4,3-b]indole-5-carboxamide]
inhibition in vivo at 10 mg/kg [1]: 100% | minimal effective concentration (Haemonchus contortus L3): 0.5 µM | minimal effective concentration (D. immitis microfilariae): 18.2 µM

O=C(NCc1ccnc(Cl)c1)n1c2c(c3ccc(C(F)(F)F)cc31)CN(C/C=C/c1ccc(Cl)c(Cl)c1)CC2 [Example 158, (E)-N-((2-chloropyridin-4-yl)methyl)-2-(3-(3,4-dichlorophenyl)allyl)-7-(trifluoromethyl)-1,2,3,4-tetrahydro-5H-pyrido[4,3-b]indole-5-carboxamide]
minimal effective concentration (Haemonchus contortus L3): 2.2 µM | minimal effective concentration (D. immitis microfilariae): 16.8 µM

O=C(NCc1ccnc(Cl)c1)n1c2c(c3cc(F)c(OC(F)(F)F)cc31)CN(C/C=C/c1ccc(Cl)cc1)CC2 [Example 469, (E)-2-(3-(4-chlorophenyl)allyl)-N-((2-chloropyridin-4-yl)methyl)-8-fluoro-7-(trifluoromethoxy)-1,2,3,4-tetrahydro-5H-pyrido[4,3-b]indole-5-carboxamide]
minimal effective concentration (Haemonchus contortus L3): 1 µM | minimal effective concentration (D. immitis microfilariae): > 100 µM

O=C(NCc1ccnc(F)c1)n1c2c(c3ccc(OC(F)(F)F)cc31)CN(C/C=C/c1ccc(Cl)c(F)c1)CC2 [Example 369, (E)-2-(3-(4-chloro-3-fluorophenyl)allyl)-N-((2-fluoropyridin-4-yl)methyl)-7-(trifluoromethoxy)-1,2,3,4-tetrahydro-5H-pyrido[4,3-b]indole-5-carboxamide]
minimal effective concentration (Haemonchus contortus L3): 1 µM | minimal effective concentration (D. immitis microfilariae): 10 µM

N-((2-chloropyridin-4-yl)methyl)-2-((6-fluoronaphthalen-2-yl)methyl)-7-(trifluoromethoxy)-1,2,3,4-tetrahydro-5H-pyrido[4,3-b]indole-5-carboxamide [Example 366]
HcL3 Minimal Effective Concentration (MEC) (Haemonchus contortus L3): >100 µM | DiMF minimally effective dose (MEC) (D. immitis microfilariae; decrease in microfilariae motility by subjective visual assessment, observed at 72 hours): 2.4 µM

CS(=O)(=O)c1ccc2c(c1)c1c(n2C(=O)NCc2ccnc(Cl)c2)CCN(C/C=C/c2ccc(Cl)cc2)C1 [Example 457, (E)-2-(3-(4-chlorophenyl)allyl)-N-((2-chloropyridin-4-yl)methyl)-8-(methylsulfonyl)-1,2,3,4-tetrahydro-5H-pyrido[4,3-b]indole-5-carboxamide]
minimal effective concentration (Haemonchus contortus L3): 1 µM | minimal effective concentration (D. immitis microfilariae): 10 µM

O=C(NCc1ccnc(Cl)c1)n1c2c(c3cc(Cl)c(Cl)cc31)CN(C/C=C/c1ccc(C(F)(F)F)cc1)CC2 [Example 285, (E)-7,8-dichloro-N-((2-chloropyridin-4-yl)methyl)-2-(3-(4-(trifluoromethyl)-phenyl)allyl)-1,2,3,4-tetrahydro-5H-pyrido[4,3-b]indole-5-carboxamide]
minimal effective concentration (Haemonchus contortus L3): > 100 µM | minimal effective concentration (D. immitis microfilariae): 10 µM

O=C(NCc1ccnc(F)c1)n1c2c(c3ccc(Cl)cc31)CN(C/C=C/c1ccc(Cl)c(F)c1)CC2 [Example 224, (E)-7-chloro-2-(3-(4-chloro-3-fluorophenyl)allyl)-N-((2-fluoropyridin-4-yl)methyl)-1,2,3,4-tetrahydro-5H-pyrido[4,3-b]indole-5-carboxamide]
minimal effective concentration (Haemonchus contortus L3): 1.8 µM | minimal effective concentration (D. immitis microfilariae): 3.3 µM
